Key:
[1] = molecular target: HA-GST-Rheb (GTP-γ-S loaded) activating mTORC1 (Homo sapiens (Human), UniProt Q15382); assay: Rheb-dependent in vitro kinase assay (Rheb-IVK; LanthaScreen or Western readout); type: biochemical; conditions: Rheb-dependent in vitro kinase assay; read-out: IVK IC50
Rheb = Rheb (Homo sapiens (Human), UniProt Q15382); assay: Affinity Selection Mass Spectrometry (ASMS); type: binding; conditions: affinity (R3/R0) in Affinity Selection Mass Spectrometry assay
Outline: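 Human Rheb (60 μM) with GDP (180 μM) and each compound at 2 μM, protein-plus versus protein-minus, incubated 30 min at room temperature, then washed by 10 kDa ultrafiltration. Retained ligand was released with MeCN and detected by UPLC-Q-TOF MS.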

Sequence of Rheb (Q15382 1-169 limits assumed): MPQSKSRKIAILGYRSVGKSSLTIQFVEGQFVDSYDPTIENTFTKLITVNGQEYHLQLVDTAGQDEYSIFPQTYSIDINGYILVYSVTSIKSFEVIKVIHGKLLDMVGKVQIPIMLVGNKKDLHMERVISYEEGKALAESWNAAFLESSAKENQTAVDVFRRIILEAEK
Sequence of HA-GST-Rheb (GTP-γ-S loaded) activating mTORC1 (Q15382 1-181): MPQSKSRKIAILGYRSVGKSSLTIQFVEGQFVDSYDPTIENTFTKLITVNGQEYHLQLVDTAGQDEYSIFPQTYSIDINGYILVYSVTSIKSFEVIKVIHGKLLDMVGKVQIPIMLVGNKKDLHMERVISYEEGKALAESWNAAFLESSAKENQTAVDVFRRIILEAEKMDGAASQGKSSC

| Compound | IC50 [1] | ASMS (R3/R0) (Rheb) |
| --- | --- | --- |
| O=C(O)c1cc2cc(SCc3ccc(Cl)cc3)c(Cl)cc2[nH]1 [I-85, 6-chloro-5-(4-chlorobenzylthio)-1H-indole-2-carboxylic acid] | 10 to 100 µM | B (an affinity (R3/R0) between 100% and 20%) |
| O=C(O)c1cc2c(Sc3ccc(Cl)c(Cl)c3)cc(Sc3ccc(Cl)c(Cl)c3)cc2[nH]1 [I-88, 4,6-bis(3,4-dichlorophenylthio)-1H-indole-2-carboxylic acid] | < 10 µM | B (an affinity (R3/R0) between 100% and 20%) |
| CN1CCC[C@H]1CNC(=O)c1cc2c(Br)cc(Sc3ccc(Cl)c(Cl)c3)cc2[nH]1 [I-89] | > 100 µM | A (an affinity (R3/R0)>100%) |
| O=C(Nc1ccc(N2CCN(Cc3ccccc3)CC2)c(F)c1)c1cc2c(Sc3ccc(Cl)cc3Cl)cc(Cl)cc2[nH]1 [I-91, N-(4-(4-benzylpiperazin-1-yl)-3-fluorophenyl)-6-chloro-4-(2,4-dichlorophenylthio)-1H-indole-2-carboxamide] | 10 to 100 µM | B (an affinity (R3/R0) between 100% and 20%) |
| Nc1ccc(N2CCN(C(=O)c3cc4c(Sc5ccc(Cl)cc5Cl)cc(Cl)cc4[nH]3)CC2)cc1F [I-92, (4-(4-amino-3-fluorophenyl)piperazin-1-yl)(6-chloro-4-(2,4-dichlorophenylthio)-1H-indol-2-yl)methanone] | 10 to 100 µM | B (an affinity (R3/R0) between 100% and 20%) |
| CN1CCCN(c2ccc(NC(=O)c3cc4c(Sc5ccc(Cl)cc5Cl)cc(Cl)cc4[nH]3)cc2F)CC1 [I-93, 6-chloro-4-(2,4-dichlorophenylthio)-N-(3-fluoro-4-(4-methyl-1,4-diazepan-1-yl)phenyl)-1H-indole-2-carboxamide] | < 10 µM | A (an affinity (R3/R0)>100%) |
| CC(C)(C)OC(=O)c1ccc(Cn2c(C(=O)O)cc3c(Cl)cc(Sc4ccc(Cl)c(Cl)c4)cc32)cc1 [I-95, 1-(4-(tert-butoxycarbonyl)benzyl)-4-chloro-6-(3,4-dichlorophenylthio)-1H-indole-2-carboxylic acid] | 10 to 100 µM | B (an affinity (R3/R0) between 100% and 20%) |
| O=C(O)c1cc2c(Sc3ccc(Br)cc3)cc(Cl)cc2[nH]1 [I-98, 4-(4-bromophenylthio)-6-chloro-1H-indole-2-carboxylic acid] | 10 to 100 µM | B (an affinity (R3/R0) between 100% and 20%) |
| CC(C)NC(=O)c1ccc(Cn2c(C(=O)O)cc3c(Br)cc(Sc4ccc(Cl)c(Cl)c4)cc32)cc1 [I-101] | > 100 µM | B (an affinity (R3/R0) between 100% and 20%) |
| O=C(O)c1cc2c(Sc3ccc(Cl)cc3Cl)cc(Cl)cc2n1Cc1ccc(Br)cc1 [I-103] | > 100 µM | B (an affinity (R3/R0) between 100% and 20%) |
| O=C(c1cc2c(Sc3ccc(Cl)cc3Cl)cc(Cl)cc2[nH]1)N1CCNCC1 [I-105, (6-chloro-4-(2,4-dichlorophenylthio)-1H-indol-2-yl)(piperazin-1-yl)methanone] | 10 to 100 µM | B (an affinity (R3/R0) between 100% and 20%) |
| O=S(=O)(c1cccnc1)n1ccc2c(Sc3ccc(Cl)cc3)cc(Cl)cc21 [I-107] | > 100 µM | C (an affinity (R3/R0)<20%) |
| O=C1CCc2ccc(Oc3cc(Cl)cc4[nH]c(C(=O)O)cc34)cc2N1 [I-108, 6-chloro-4-(2-oxo-1,2,3,4-tetrahydroquinolin-7-yloxy)-1H-indole-2-carboxylic acid] | 100 to 300 µM | B (an affinity (R3/R0) between 100% and 20%) |
| CC(C)(C)OC(=O)c1ccc(Cn2c(C(=O)O)cc3c(Br)cc(Sc4ccc(Cl)c(Cl)c4)cc32)cc1 [I-109, 4-Bromo-1-(4-(tert-butoxycarbonyl)benzyl)-6-(3,4-dichlorophenylthio)-1H-indole-2-carboxylic acid] | 10 to 100 µM | B (an affinity (R3/R0) between 100% and 20%) |
| CN1CCC(CCNC(=O)c2cc3c(Br)cc(Sc4ccc(Cl)c(Cl)c4)cc3n2Cc2ccc(C(=O)OC(C)(C)C)cc2)CC1 [I-110] | > 100 µM | C (an affinity (R3/R0)<20%) |
| CN1CCN(c2ccc(NC(=O)c3cc4c(Sc5ccc(Cl)cc5Cl)cc(Cl)cc4[nH]3)cc2Cl)CC1 [I-111, 6-chloro-N-(3-chloro-4-(4-methylpiperazin-1-yl)phenyl)-4-(2,4-dichlorophenylthio)-1H-indole-2-carboxamide] | < 10 µM | C (an affinity (R3/R0)<20%) |
| CN1CCC(NC(=O)c2cc3c(Sc4ccc(Cl)cc4Cl)cc(Cl)cc3[nH]2)CC1 [I-114] | > 100 µM | B (an affinity (R3/R0) between 100% and 20%) |
| CN(C)CCNC(=O)c1cc2c(Sc3ccc(Cl)cc3Cl)cc(Cl)cc2[nH]1 [I-115, 6-chloro-4-(2,4-dichlorophenylthio)-N-(2-(dimethylamino)ethyl)-1H-indole-2-carboxamide] | 10 to 100 µM | B (an affinity (R3/R0) between 100% and 20%) |
| O=C(NC1CCN(Cc2ccccc2)CC1)c1cc2c(Sc3ccc(Cl)cc3Cl)cc(Cl)cc2[nH]1 [I-117] | > 3 µM | C (an affinity (R3/R0)<20%) |
| O=C(O)c1cc2c(Sc3cccc(OC(F)(F)F)c3)cc(Cl)cc2[nH]1 [I-126, 6-chloro-4-(3-(trifluoromethoxy)phenylthio)-1H-indole-2-carboxylic acid] | 10 to 100 µM | B (an affinity (R3/R0) between 100% and 20%) |

Further lines, with some results ahead:

| IC50 [1] | Compound | ASMS (R3/R0) (Rheb) |
| --- | --- | --- |
| 10 to 100 µM | O=C(O)c1cc2c(Sc3cccc4cccnc34)cc(Cl)cc2[nH]1 [I-87, 6-chloro-4-(quinolin-8-ylthio)-1H-indole-2-carboxylic acid] | B (an affinity (R3/R0) between 100% and 20%) |
| > 100 µM | CN1CCN(C(=O)c2cc3c(Sc4ccc(Cl)cc4)cc(Cl)cc3[nH]2)CC1 [I-90] | B (an affinity (R3/R0) between 100% and 20%) |
| < 10 µM | O=C(O)c1cc2c(SCc3ccc(Cl)cc3)cc(SCc3ccc(Cl)cc3)cc2[nH]1 [I-94, 4,6-bis(4-chlorobenzylthio)-1H-indole-2-carboxylic acid] | B (an affinity (R3/R0) between 100% and 20%) |
| 10 to 100 µM | CN1CCN(c2ccc(NC(=O)c3cc4c(Br)cc(Sc5ccc(Cl)c(Cl)c5)cc4[nH]3)cc2)CC1 [I-96, 4-bromo-6-(3,4-dichlorophenylthio)-N-(4-(4-methylpiperazin-1-yl)phenyl)-1H-indole-2-carboxamide] | A (an affinity (R3/R0)>100%) |
| > 100 µM | CN1CCC(CCNC(=O)c2cc3c(Br)cc(Sc4ccc(Cl)c(Cl)c4)cc3[nH]2)CC1 [I-97] | B (an affinity (R3/R0) between 100% and 20%) |
| > 100 µM | COC(=O)c1cc2c(Sc3ccc(Br)cc3)cc(Cl)cc2[nH]1 [I-99] | B (an affinity (R3/R0) between 100% and 20%) |
| < 10 µM | O=C(O)c1cc2c(Cl)cc(Sc3ccc(Cl)c(Cl)c3)cc2[nH]1 [I-100, 4-chloro-6-(3,4-dichlorophenylthio)-1H-indole-2-carboxylic acid] | B (an affinity (R3/R0) between 100% and 20%) |
| < 10 µM | CN1CCN(c2ccc(NC(=O)c3cc4c(Sc5ccc(Cl)cc5Cl)cc(Cl)cc4[nH]3)cc2C#N)CC1 [I-112, 6-chloro-N-(3-cyano-4-(4-methylpiperazin-1-yl)phenyl)-4-(2,4-dichlorophenylthio)-1H-indole-2-carboxamide] | C (an affinity (R3/R0)<20%) |
| < 10 µM | CN1CCN(c2ccc(NC(=O)c3cc4c(Sc5ccc(Cl)cc5Cl)cc(Cl)cc4[nH]3)cc2F)CC1 [I-113, 6-chloro-4-(2,4-dichlorophenylthio)-N-(3-fluoro-4-(4-methylpiperazin-1-yl)phenyl)-1H-indole-2-carboxamide] | C (an affinity (R3/R0)<20%) |
| < 10 µM | OCc1cc2c(Sc3ccc(Oc4ccccc4)cc3)cc(Cl)cc2[nH]1 [I-116, (6-chloro-4-(4-phenoxyphenylthio)-1H-indol-2-yl)methanol] | B (an affinity (R3/R0) between 100% and 20%) |
| < 10 µM | O=C(O)c1cc2c(Sc3ccc(Oc4ccccc4)cc3)cc(Cl)cc2[nH]1 [I-118, 6-chloro-4-(4-phenoxyphenylthio)-1H-indole-2-carboxylic acid] | B (an affinity (R3/R0) between 100% and 20%) |
| > 100 µM | O=C(NCCN1CCN(c2ccccc2)CC1)c1cc2c(Sc3ccc(Cl)cc3Cl)cc(Cl)cc2[nH]1 [I-119] | B (an affinity (R3/R0) between 100% and 20%) |
| < 10 µM | CN1CCN(c2cccc(NC(=O)c3cc4c(Sc5ccc(Cl)cc5Cl)cc(Cl)cc4[nH]3)c2)CC1 [I-121, 6-chloro-4-(2,4-dichlorophenylthio)-N-(3-(4-methylpiperazin-1-yl)phenyl)-1H-indole-2-carboxamide] | B (an affinity (R3/R0) between 100% and 20%) |
| < 10 µM | OCc1cc2c(Sc3cccc(OC(F)(F)F)c3)cc(Cl)cc2[nH]1 [I-122, (6-chloro-4-(3-(trifluoromethoxy)phenylthio)-1H-indol-2-yl)methanol] | B (an affinity (R3/R0) between 100% and 20%) |
| < 10 µM | OCc1cc2c(Sc3ccc(OC(F)(F)F)cc3)cc(Cl)cc2[nH]1 [I-123, (6-chloro-4-(4-(trifluoromethoxy)phenylthio)-1H-indol-2-yl)methanol] | B (an affinity (R3/R0) between 100% and 20%) |
| < 10 µM | O=C(O)c1cc2c(Oc3ccc(C4CCCCC4)cc3)cc(Cl)cc2[nH]1 [I-125, 6-chloro-4-(4-cyclohexylphenoxy)-1H-indole-2-carboxylic acid] | B (an affinity (R3/R0) between 100% and 20%) |
| < 10 µM | OCc1cc2c(Oc3ccc(C4CCCCC4)cc3)cc(Cl)cc2[nH]1 [I-127, (6-chloro-4-(4-cyclohexylphenoxy)-1H-indol-2-yl)methanol] | B (an affinity (R3/R0) between 100% and 20%) |

From patent US11339144B2 (Navitor Pharmaceuticals, Inc., priority 2017, dated 2022)
